Assay [1] concerns Aphis craccivora. In words: Insecticidal activity against Aphis craccivora (cowpea aphid) infected soybean tender shoots assessed as mortality at 500 mg/L after 24 hr. It is filed as functional.
For assay [2], the system named is Aphis craccivora. In words: Insecticidal activity against Aphis craccivora (cowpea aphid) infected soybean tender shoots after 24 hr. It is filed as functional.

Each structure is given as a SMILES string.

In the case of `N#CS/C(C#N)=C1\NCCN1Cc1cnc(Cl)s1`, the mortality (commonly the share of the test organisms that died) at 500 µg/mL in assay [1] was found to be 0%. Same read-out and setting: the figure for `N#CS/C(C#N)=C1\NCCN1Cc1ccc(Cl)nc1` is 34.6%. As to `N=c1sc([N+](=O)[O-])c2n1CCN2Cc1cnc(Cl)s1`, the LC50 (commonly the concentration lethal to half of the exposed cells or organisms) in assay [2] was 17.8 µM. Further, in assay [1], the mortality at 500 µg/mL turned out to be 100%. On to `CCn1c(NCc2ccc(Cl)nc2)c([N+](=O)[O-])sc1=N`, for which the mortality at 500 µg/mL in assay [1] was 50.8%. Regarding `CCN(Cc1ccc(Cl)nc1)c1c([N+](=O)[O-])sc(=N)n1C`, the mortality at 500 µg/mL in assay [1] was 57.6%.

`N#CS/C(=C1\NCCN1Cc1cnc(Cl)s1)[N+](=O)[O-]` gave a 50% lethal concentration (LC50) in assay [2] of 9.74 µM. In assay [1], the mortality at 500 µg/mL was found to be 100%. The molecule `N#CS/C(=C1\NCCCN1Cc1ccc(Cl)nc1)[N+](=O)[O-]` displayed an LC50 in assay [2] of 24.9 µM. The mortality at 500 µg/mL in assay [1] came out at 100%. The like results for `N#CS/C(=C1\NCCN1Cc1ccc(Cl)nc1)[N+](=O)[O-]` were, in that order, 15.7 µM and 100%. Take `N=c1sc([N+](=O)[O-])c2n1CCN2Cc1ccccc1`: in assay [1], the mortality at 500 µg/mL is 16.2%. In the case of `N=c1sc([N+](=O)[O-])c2n1CCN2Cc1ccc(Cl)nc1`, in assay [2], the median lethal concentration (LC50) came out at 26.8 µM. In assay [1], the mortality at 500 µg/mL was determined as 100%. Taken in the same sequence, the figures for `N#CS/C(=C1\NCCN1Cc1ccc(C(F)(F)F)nc1)[N+](=O)[O-]` were 18.9 µM and 100%.

The molecule `Cn1c(NCc2ccc(Cl)nc2)c([N+](=O)[O-])sc1=N` gave a 50% lethal concentration (LC50) in assay [2] of 118 µM. Further, in assay [1], the mortality at 500 µg/mL amounted to 100%. For `N#Cc1sc(=N)n2c1N(Cc1ccc(Cl)nc1)CC2`, the mortality at 500 µg/mL in assay [1] is 32.4%. With `N#CS/C(=C1\Nc2ccccc2N1Cc1ccc(Cl)nc1)[N+](=O)[O-]`, in assay [1], the mortality at 500 µg/mL was found to be 87.8%. The molecule `N=c1sc([N+](=O)[O-])c2n1CCCN2Cc1ccc(Cl)nc1` displayed a median lethal concentration (LC50) in assay [2] of 22 µM. Moreover, the mortality at 500 µg/mL in assay [1] is 100%. As for `N#CS/C(=C1\NCCN1Cc1ccccc1)[N+](=O)[O-]`, the mortality at 500 µg/mL in assay [1] is 24%. Molecule `N=c1sc([N+](=O)[O-])c2n1CCN2Cc1ccc(C(F)(F)F)nc1` registered a 50% lethal concentration (LC50) in assay [2] of 24.5 µM. For the same molecule, the mortality at 500 µg/mL in assay [1] was found to be 100%.

The values above are taken from ChEMBL document CHEMBL3045882, “Synthesis and biological activity evaluation of novel β-substituted nitromethylene neonicotinoid analogues” (2012).
